Measurements: patent US8318953B2, “Reactive coumarin derivatives and their use in cellular analyses” (AAT Bioquest, Inc., priority 2010, dated 2012)

Columns and labels:
intracellular esterases = assay: Relative stability and cleavage by intracellular esterases
Text: Chemically reactive enzyme substrate compounds will covalently attach to a corresponding functional group of cell components, forming the complexes of enzyme substrates-cell components or enzyme products-cell components. Using enzyme substrate compounds to label reactive sites on the surface of cells, in cell membranes or in intracellular compartments such as organelles, or in the cell's cytoplasm, permits the determination of their presence or quantity, accessibility, or their spatial and temporal distribution in the sample. […] Photoreactive enzyme substrates can be used similarly to photolabel components of the outer membrane of biological cells or as photo-fixable polar tracers for cells.

Jurkat cells = assay: Flow cytometric monitoring of cell proliferation after dye loading; assay type: cell-based; conditions: Jurkat cells loaded with 5 μM dye loading solution at 37° C. for 1 hour; flow cytometric analysis
Protocol: Compound ES 9 is dissolved in anhydrous DMSO to make 5 mM stock solution, and diluted in PBS buffer to make 5 μM dye loading solution. Jurkat cells are loaded with the dye loading solution of Compound ES9 at 37° C. for 1 hour. The cells are washed with PBS buffer to remove serum. The resulted cells are cultured and passed for flow cytometric analysis as desired. Compound ES9 is used to monitor cell proliferation of nine passages.
ES compounds are retained by cells and shared by the daughter cells at each division, resulting in multimodal flow cytometric ES staining histograms, with each cell generation clustering around half the fluorescence intensity of the previous one. ES compounds are dissolved in anhydrous DMSO, and the stock solutions are used promptly. To prepare the cell working solutions (from 1 to 100 μM) the DMSO stock solutions of ES compounds are diluted with Hanks and 20 mM Hepes buffer (HHBS, pH 7 with 0.02% PF-127). The Jurkat cells are treated with test compounds for a desired period of time, and centrifuged give 1-5×10^5 cells per tube. The cells are resuspended in 500 μL of the ES compound working solutions, and incubated at room temperature or 37° C. for 5 to 10 min. […] The fluorescence of ES compound staining are monitored at Ex/Em=405/450 nm, 405/500 nm or 405/550 nm with a fluorescence microscope or a flow cytometer.

CPA cells = assay: Absorption and emission spectra of cell lysates after incubating cells with the substrate; assay type: cell-based; conditions: CPA cells incubated with compound (5 μM) for 1 h, lysed with 1% Triton X-100; pH=9.0 buffer
Protocol: CPA cells are incubated with Compound ES1 (5 μM) for 1 h, and lysed with 1% Triton® X-100. The cell lysates from the enzymatic hydrolysis of Compound ES1 have a maximum absorption around 409 nm, which matches very well the 405 nm violet laser excitation of a typical flow cytometer.
CPA cells are incubated with Compound ES7 (5 μM) for 1 h, and lysed with 1% Triton® X-100. The cell lysates from the enzymatic hydrolysis of ES7 have a maximum absorption around 416 nm, which matches very well the 405 nm violet laser excitation of a typical flow cytometer.

stability relative to Compound ES 18 (intracellular esterases) | SMILES | also measured
more stable than Compound ES 18 | CC(=O)Oc1cc2oc(=O)c(-c3ccc(CCCCCC(=O)ON4C(=O)CCC4=O)s3)cc2cc1Cl [Compound 9] | 
 | CC(=O)Oc1cc2oc(=O)c(-c3ccc(CCCCCC(=O)ON4C(=O)CCC4=O)s3)cc2cc1Cl [ES9] | passages over which cell proliferation is monitored (Jurkat cells): nine
more stable than Compound ES 18 | CC(=O)Oc1cc2oc(=O)c(-c3ccc(CCCCCC(=O)NCCN4C(=O)C=CC4=O)s3)cc2cc1Cl [Compound 10] | 
more stable than Compound ES 18 | CC(=O)Oc1cc2oc(=O)c(C(=O)ON3C(=O)CCC3=O)cc2cc1Cl [ES1] | maximum absorption of cell lysates from the enzymatic hydrolysis (CPA cells): around 409 nm
 | CC(=O)Oc1c(F)cc2cc(C(=O)ON3C(=O)CCC3=O)c(=O)oc2c1F [ES18] | cleavage by intracellular esterases (intracellular esterases): cleaved by intracellular esterases more slowly
more stable than Compound ES 18 | CC(=O)OCOc1c(Cl)cc2cc(C(=O)ON3C(=O)CCC3=O)c(=O)oc2c1Cl [Compound 5] | 
 | CC(=O)Oc1c(Cl)cc2cc(C(=O)NCCCCCN3C(=O)C=CC3=O)c(=O)oc2c1F [ES7] | maximum absorption of cell lysates from the enzymatic hydrolysis (CPA cells): around 416 nm
